Laboratory results from patent publication US10307413B2, “Tetrahydro- and dihydro-isoquinoline PRMT5 inhibitors and uses thereof” (Epizyme, Inc., priority 2013, dated 2019).
Like-named read-outs stand apart in the source and are kept apart here.

Columns and labels:
PRMT5/MEP50 = PRMT5/MEP50 (Homo sapiens (Human), UniProt O14744); test: PRMT5 Biochemical Assay (PRMT5/MEP50 enzyme assay on peptide substrate, 3H-SAM Flashplate)
How it was run: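 Radiometric methylation of a biotin-tagged H4(1-15) peptide by human PRMT5/MEP50 from baculovirus/Sf9, with ³H-SAM incorporation read on streptavidin Flashplates. Buffer: Bicine pH 7.6, TCEP, BSG, Tween20; compound preincubated 30 min at 25 °C; stopped with 600 µM final unlabeled SAM. DMSO and SAH controls; IC50 from fitted % inhibition.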

[1] = test system: symmetric di-methyl arginine in Z-138 cells; test: Z-138 Methylation Assay (In Cell Western for symmetric di-methyl arginine and DNA content); type: cell-based; details: Homo sapiens, read-out: ICW EC50
How it was run: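 In-cell western: symmetric di-methyl arginine signal ratioed to DRAQ5 DNA content after 96 h compound exposure of Z-138 cells seeded at 50,000 cells/mL.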

Z-138 cell line = test: Z-138 Proliferation Assay (Cell Titer Glo, 5 days); type: cell-based; details: Homo sapiens, 120 h, Z-138 cells, 5 days, read-out: Proliferation EC50
How it was run: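 Viability via CellTiter-Glo luminescence (ATP) after 5-day incubation at 37 °C, 5% CO2. Compounds tested in triplicate, nine 3-fold steps, highest final concentration 20 μM in 0.2% DMSO; 50% inhibitory concentration by 4-parameter fit of normalized curves.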

Chain of PRMT5/MEP50 (O14744 other isoform, or with tags, fused parts or gaps): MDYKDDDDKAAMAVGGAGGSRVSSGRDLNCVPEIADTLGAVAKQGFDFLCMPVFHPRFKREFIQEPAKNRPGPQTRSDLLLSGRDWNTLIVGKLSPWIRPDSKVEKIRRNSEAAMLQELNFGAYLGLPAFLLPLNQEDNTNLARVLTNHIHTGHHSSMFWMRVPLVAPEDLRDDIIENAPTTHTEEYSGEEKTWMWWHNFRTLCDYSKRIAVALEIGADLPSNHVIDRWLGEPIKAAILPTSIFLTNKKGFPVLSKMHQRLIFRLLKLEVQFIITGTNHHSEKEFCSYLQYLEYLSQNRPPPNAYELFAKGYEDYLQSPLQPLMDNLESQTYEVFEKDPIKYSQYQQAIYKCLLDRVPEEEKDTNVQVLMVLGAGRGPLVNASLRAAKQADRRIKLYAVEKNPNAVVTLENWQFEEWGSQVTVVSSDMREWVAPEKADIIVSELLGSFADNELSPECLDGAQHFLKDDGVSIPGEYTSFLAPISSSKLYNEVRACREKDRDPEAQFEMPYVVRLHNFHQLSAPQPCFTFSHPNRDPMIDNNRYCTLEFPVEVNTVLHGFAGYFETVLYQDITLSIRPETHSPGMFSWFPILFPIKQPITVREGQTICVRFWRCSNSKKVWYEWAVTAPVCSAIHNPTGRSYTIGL
Chain of PRMT5/MEP50 (Q9BQA1 other isoform, or with tags, fused parts or gaps partner): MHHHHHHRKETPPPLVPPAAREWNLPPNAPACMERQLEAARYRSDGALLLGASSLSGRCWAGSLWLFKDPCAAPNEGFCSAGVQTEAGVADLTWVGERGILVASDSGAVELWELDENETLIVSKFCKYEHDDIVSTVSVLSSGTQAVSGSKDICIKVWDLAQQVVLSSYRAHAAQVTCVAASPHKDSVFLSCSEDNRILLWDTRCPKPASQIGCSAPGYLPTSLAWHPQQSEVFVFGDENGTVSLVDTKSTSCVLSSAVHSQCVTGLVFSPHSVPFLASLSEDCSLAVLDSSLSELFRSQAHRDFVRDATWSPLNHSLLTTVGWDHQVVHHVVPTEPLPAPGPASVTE

Row | Compound | IC50 (PRMT5/MEP50; PRMT5 biochemical assay) [nM] | EC50 ([1]; In Cell Western methylation) [nM] | IC50 (PRMT5/MEP50) [nM] | EC50 [1] [nM] | EC50 (Z-138 cell line; Cell Titer Glo) [nM] | EC50 (Z-138 cell line) [nM]
1 | O=C(NC[C@H](O)CN1CCc2ccccc2C1)c1cc(OC2CNC2)ncn1 [Compound 439] | < 100 | 101 to 1000 |  |  | 10000 to 50000 | 
2 | O=C(NC[C@H](O)CN1CCc2ccccc2C1)c1cc(NC2COC2)ccn1 [Compound 435] | < 100 | < 100 |  |  | 101 to 1000 | 
3 | O=C(NC[C@H](O)CN1CCc2ccccc2C1)c1cc(N[C@@H]2CCOC2)ncn1 [Compound 365] |  |  | < 100 | < 100 |  | 101 to 1000
4 | O=C(NC[C@H](O)CN1CCc2ccccc2C1)c1cc(O)nc(NC2CCC2)c1 [Compound 434] | < 100 | < 100 |  |  | 101 to 1000 | 
5 | O=C(NC[C@H](O)CN1CCc2ccccc2C1)c1ccc(OCCN2CCCC2)cc1 [Compound 383] |  |  | < 100 | < 100 |  | 1000 to 10000
6 | CN(C)[C@H]1C[C@@H](Nc2cc(C(=O)NC[C@H](O)CN3CCc4ccccc4C3)ncn2)C1 [Compound 377] |  |  | < 100 | 101 to 1000 |  | 1000 to 10000
7 | CC(C)CN1CC(Nc2cc(C(=O)NC[C@H](O)CN3CCc4ccccc4C3)ncn2)C1 [Compound 438] | < 100 | 101 to 1000 |  |  | 1000 to 10000 | 
8 | CN1CCN(c2cc(C(=O)NC[C@H](O)CN3CCc4ccccc4C3)cc(NC3CCC3)n2)CC1 [Compound 413] | < 100 | < 100 |  |  | < 100 | 
9 | O=C(NC[C@H](O)CN1CCc2ccccc2C1)c1cc(Nc2cc[nH]n2)ncn1 [Compound 431] | < 100 | < 100 |  |  | 1000 to 10000 | 
10 | O=C(NC[C@H](O)CN1CCc2ccccc2C1)c1ccc2[nH]nnc2c1 [Compound 305] |  |  | < 100 | < 100 |  | 101 to 1000
11 | O=C(NCC(O)CN1CCc2ccccc2C1)c1ccccc1-c1ccccn1 (stereo not drawn) [Compound 12, N-(3-(3,4-dihydroisoquinolin-2(1H)-yl)-2-hydroxypropyl)-2-(pyridin-2-yl)benzamide] |  |  | 101 to 1000 | 1000 to 10000 |  | > 20000
12 | CCN1CCC(Oc2ccc(C(=O)NC[C@H](O)CN3CCc4ccccc4C3)cc2)CC1 [Compound 346] |  |  | < 100 | < 100 |  | 101 to 1000
13 | Cc1nc(NC2COC2)cc(C(=O)NC[C@H](O)CN2CCc3ccccc3C2)n1 [Compound 399] | < 100 | < 100 |  |  | 1000 to 10000 | 
14 | O=C(NC[C@H](O)CN1CCc2ccccc2C1)c1ccc(OC2CCCNC2)cc1 (stereo partly drawn) [Compound 347] |  |  | < 100 | < 100 |  | 101 to 1000
15 | O=C(NC[C@H](O)CN1CCc2ccccc2C1)c1cc(NC2CCC2)ncn1 [Compound 355] |  |  | < 100 | < 100 |  | < 100
16 | O=C(NC[C@H](O)CN1CCc2ccccc2C1)c1ccc(OCCCN2CCOCC2)cc1 [Compound 363] |  |  | < 100 | < 100 |  | 1000 to 10000
17 | Cc1cnc(NC2CN(C)C2)cc1C(=O)NC[C@H](O)CN1CCc2ccccc2C1 [Compound 403] | < 100 | > 1000 |  |  | > 20000 | 
18 | O=C(NC[C@H](O)CN1CCc2ccccc2C1)c1ccc(OCCN2CCOCC2)cc1 [Compound 387] |  |  | < 100 | < 100 |  | 101 to 1000
19 | CN1CCC(Nc2cccc(C(=O)NCC(O)CN3CCc4ccccc4C3)c2)C1 (stereo not drawn) [Compound 120] |  |  | < 100 | 101 to 1000 |  | 1000 to 10000
20 | CCN(C)CCOc1ccc(C(=O)NC[C@H](O)CN2CCc3ccccc3C2)cc1 [Compound 385] |  |  | < 100 | < 100 |  | 1000 to 10000
21 | CC(C)NCCCOc1ccc(C(=O)NC[C@H](O)CN2CCc3ccccc3C2)cc1 [Compound 374] |  |  | < 100 | < 100 |  | 1000 to 10000
22 | O=C(NC[C@H](O)CN1CCc2ccccc2C1)c1ccc(OCCCN2CCCCC2)cc1 [Compound 362] |  |  | 101 to 1000 | < 100 |  | 101 to 1000
23 | CC(=O)Nc1ccc(C(=O)NCC(O)CN2CCc3ccccc3C2)cc1 (stereo not drawn) [Compound 23, 4-acetamido-N-(3-(3,4-dihydroisoquinolin-2(1H)-yl)-2-hydroxypropyl)benzamide] |  |  | 101 to 1000 | 101 to 1000 |  | > 20000

Now from value to compound, other results behind:

Row | IC50 (PRMT5/MEP50; PRMT5 biochemical assay) [nM] | EC50 ([1]; In Cell Western methylation) [nM] | IC50 (PRMT5/MEP50) [nM] | EC50 [1] [nM] | Compound | EC50 (Z-138 cell line; Cell Titer Glo) [nM] | EC50 (Z-138 cell line) [nM]
24 | < 100 | < 100 |  |  | CC(=O)N1CCC(Nc2cc(C(=O)NCC(C)(O)CN3CCc4ccccc4C3)ncn2)CC1 (stereo not drawn) [Compound 649] | 1000 to 10000 | 
25 | < 100 | 101 to 1000 |  |  | O=C(NC[C@H](O)CN1CCc2ccccc2C1)c1cc(NC2CNC2)nc(N2CCN(C(=O)C3CC3)CC2)n1 [Compound 485] | 1000 to 10000 | 
26 | < 100 | < 100 |  |  | O=C(NC[C@H](O)CN1CCc2ccccc2C1)c1cc(NC2CC3(COC3)C2)ncn1 [Compound 557] | < 100 | 
27 | < 100 | < 100 |  |  | CC(=O)N1CC(Nc2cc(C(=O)NC[C@H](O)CN3CCc4ccccc4C3)nc(C(F)(F)F)n2)C1 [Compound 474] | 101 to 1000 | 
28 | < 100 | 101 to 1000 |  |  | CN1CCC(Oc2cc(C(=O)NC[C@H](O)CN3CCc4ccccc4C3)cnn2)CC1 [Compound 620] | 10000 to 50000 | 
29 | < 100 | < 100 |  |  | CC(=O)N1CC(Nc2cc(C(=O)NC[C@H](O)CN3CCc4ccccc4C3)nc(N3CCOCC3)n2)C1 [Compound 443] | < 100 | 
30 | < 100 | > 1000 |  |  | O=C(NC[C@H](O)CN1CCc2ccccc2C1)c1cc(NC2CNC2)nc(N2CCNCC2)n1 [Compound 453] | > 20000 | 
31 | < 100 | < 100 |  |  | CC(=O)N(C)[C@H]1CC[C@H](Nc2cc(C(=O)NC[C@H](O)CN3CCc4ccccc4C3)ncn2)CC1 [Compound 671] | < 100 | 
32 | < 100 | < 100 |  |  | CCN(C)c1nc(NC2COC2)cc(C(=O)NC[C@H](O)CN2CCc3ccccc3C2)n1 [Compound 458] | < 100 | 
33 | < 100 | < 100 |  |  | CC(=O)N1CC(Nc2cc(C(=O)NC[C@H](O)CN3CCc4ccccc4C3)nc(C(C)(C)C)n2)C1 [Compound 546] | < 100 | 
34 | < 100 | < 100 |  |  | CC(=O)N1CCC(Nc2cc(C(=O)NCC(C)CN3CCc4ccccc4C3)ncn2)CC1 (stereo not drawn) [Compound 658] | 101 to 1000 | 
35 | < 100 | < 100 |  |  | CC(=O)N1CCC(Nc2cc(C(=O)NC[C@H](O)CN3CCc4ccc(C)cc4C3)ccn2)CC1 [Compound 669] | 101 to 1000 | 
36 | < 100 | < 100 |  |  | CNC(=O)CN1CCC(Nc2cc(C(=O)NC[C@H](O)CN3CCc4ccccc4C3)ncn2)CC1 [Compound 533] | < 100 | 
37 | < 100 | < 100 |  |  | CC(=O)N1CC(Nc2cc(C(=O)NC[C@H](O)CN3CCc4cccc(C)c4C3)ncn2)C1 [Compound 663] | 101 to 1000 | 
38 | < 100 | < 100 |  |  | CO[C@H]1CC[C@@H](Nc2cc(C(=O)NC[C@H](O)CN3CCc4ccccc4C3)ncn2)CC1 [Compound 624] | < 100 | 
39 | < 100 | < 100 |  |  | CC(=O)N1CCC(Nc2cc(C(=O)NC[C@H](O)CN3CCc4cc(C)ccc4C3)ncn2)CC1 [Compound 675] | 101 to 1000 | 
40 | < 100 | < 100 |  |  | CC(=O)N1CC(Nc2cc(C(=O)NCC(C)CN3CCc4ccccc4C3)ncn2)C1 (stereo not drawn) [Compound 659] | 101 to 1000 | 
41 | < 100 | < 100 |  |  | CC(=O)N1CCC(Nc2cc(C(=O)NC[C@H](O)CN3CCc4cccc(C)c4C3)ccn2)CC1 [Compound 665] | < 100 | 
42 | < 100 | < 100 |  |  | COCCO[C@H]1C[C@@H](Nc2cc(C(=O)NC[C@H](O)CN3CCc4ccccc4C3)ncn2)C1 [Compound 560] | 101 to 1000 | 
43 | < 100 | < 100 |  |  | NC(=O)[C@H]1CC[C@@H](Nc2cc(C(=O)NC[C@H](O)CN3CCc4ccccc4C3)ncn2)CC1 [Compound 596] | 1000 to 10000 | 
44 | < 100 | < 100 |  |  | CC(=O)N1CCC(Nc2cc(C(=O)NC[C@H](O)CN3CCc4ccccc4C3)cc(N(C)C)n2)CC1 [Compound 610] | < 100 | 
45 | < 100 | < 100 |  |  | CCCC(=O)N1CC(Nc2cc(C(=O)NC[C@H](O)CN3CCc4ccccc4C3)ccn2)C1 [Compound 503] | < 100 | 
46 | < 100 | < 100 |  |  | CC(=O)N1CCN(c2nc(NC3COC3)cc(C(=O)NC[C@H](O)CN3CCc4ccccc4C3)n2)CC1 [Compound 497] | < 100 | 
47 | < 100 | < 100 |  |  | O=C(NC[C@H](O)CN1CCc2ccccc2C1)c1cc(NC2COC2)nc(N2CCCC2)n1 [Compound 451] | 101 to 1000 | 
48 | < 100 | < 100 |  |  | CC(=O)N1CC(Nc2cc(C(=O)NC[C@H](O)CN3CCc4ccccc4C3)nc(C)n2)C1 [Compound 450] | 101 to 1000 | 
49 | < 100 | < 100 |  |  | N[C@H]1CC[C@H](Nc2cc(C(=O)NC[C@H](O)CN3CCc4ccccc4C3)ncn2)CC1 [Compound 595] | > 5000 | 
50 | < 100 | < 100 |  |  | CC(=O)N1CC[C@@H](Nc2cc(C(=O)NC[C@H](O)CN3CCc4ccccc4C3)ncn2)C1 [Compound 642] | 101 to 1000 | 
